Here are results for one compound from US5900434A, “Method for inhibiting the production of interleukin-1 or tumor necrosis factor-α by administering acanthoic acid” (Korea Institute of Science and Technology, priority 1994, dated 1999).

Molecules are shown by their SMILES.

Data set [1] concerns TNF-α production in rat alveolar macrophages and lymphocytes. In words: Inhibition of TNF-α production in rat alveolar macrophages and lymphocytes. The class given is cell-based. The note with it: 10 μg/ml; 100 μg/ml silica, 3 days; FIG. 4. On the procedure:
TNF-α dependent L929 fibroblasts(ATCC CCLl) were suspended in RPMI 1640 medium containing 5% FBS and added to the wells of 96-well incubation plate in an amount of 3×10^4 cells/well. The plate was incubated at 37° C. for 2 hours to make the cells adhere to the incubation plate. Then, the medium was removed and 1 μg/ml of actinomycin D(Sigma) and 50 μl of culture dialyzate of monocytes and macrophages obtained in Example 1 were added to each of the wells. The final concentration of FBS in each well was adjusted to 5% and the cells were incubated at 37° C. under 5% CO2 for 24 hours.
When the incubation was completed, the medium was removed and the cells were washed twice with PBS and stained for 5 minutes with 0.5% crystal violet solution in 20% methanol. The cells were washed three times with PBS and dried. Then, 100 μl of 33% acetic acid was added to each of the wells to release the dye, and then the O.D. of sample obtained from each of the wells was determined by using ELISA reader with 570 nm reading filter and 405 nm reference filter. The amount of released dye was calculated from the O.D. value with reference to that of the internal control group, i.e., rHu TNF-α(Genzyme). […]

For data set [2], the system named is human monocytes and macrophages. The experiment in a line: Cytotoxicity on human monocytes and macrophages (MTT). Type of data set: cell-based. The conditions noted are these: concentration lower than 10 μg/ml. The method, then: Normal human peripheral blood was heparin-treated and diluted with equal amount of Hank's balanced salt solution (HBSS: Ca^2+ and Mg^2+ free). The diluted blood was put into a centrifuge tube containing therein Ficoll-Hypaque(Sigma, St. Louis, Mo., U.S.A.) layer having a density of 1.077 piled up on Ficoll-Hypaque layer having a density of 1.119, and then centrifuged at 700×g for 30 minutes to obtain monocytes from the layer between Ficoll-Hypaque layer having a density of 1.077 and serum layer, and neutrophils from the layer between Ficoll-Hypaque layer having a density of 1.077 and that having a density of 1.119. The separated cells were washed twice with 4° C. HBSS(Ca^2+ and Mg^2+ free) and suspended in RPMI 1640 medium(Gibco, Grand Island, N.Y., U.S.A.) containing 10% fetal bovine serum(FBS, Hyclone, Logan, Utah, U.S.A.). The suspensions were added to the wells of 24-well incubation plate(Costar, Cambridge, Mass., U.S.A.) and incubated at 37° C. for 2 hours to obtain monocytes, macrophages and neutrophils. […] The cytotoxicity of acanthoic acid was determined by the following procedures. […] 100 μl each of acidified isopropanol(0.04N HCl in isopropanol) was added to the cells in each well to elute formazan produced by the living cells, and optical density (O.D.) was determined at 540 nm by using an ELISA reader (Titertek multiskan Mcc/340)(FIG. 1). […]

Consider `C=C[C@@]1(C)CC=C2C(CCC3[C@](C)(C(=O)O)CCC[C@@]23C)C1` (single isomer, unassigned; (-)) [acanthoic acid, (-)-pimara-9(11),15-diene-19-oic acid], for which the “inhibition of production of TNF-α” value in data set [1] is recorded as “inhibited”. Also, the cytotoxicity entry in data set [2] is on record as “no cytotoxicity”.
